{"source": "patent US12618095B2", "about": "“Medium for Bacillus cereus group detection” (SHIMADZU DIAGNOSTICS CORPORATION, priority 2020, dated 2026)", "key": {"B. thuringiensis": {"test_system": "B. thuringiensis", "test": "Test Example 9: concentration of amphotericin B", "format": "cell-based", "conditions": "NBRC101235"}, "C. albicans": {"test_system": "C. albicans", "test": "Test Example 9: concentration of amphotericin B"}}, "data": [{"smiles": "C[C@@H]1[C@H](O)[C@@H](C)/C=C/C=C/C=C/C=C/C=C/C=C/C=C/[C@H](O[C@@H]2O[C@H](C)[C@@H](O)[C@H](N)[C@@H]2O)C[C@@H]2O[C@](O)(C[C@@H](O)C[C@@H](O)[C@H](O)CC[C@@H](O)C[C@@H](O)CC(=O)O[C@H]1C)C[C@H](O)[C@H]2C(=O)O", "note": "[Amphotericin B]", "values": [{"measurement": "Number of colonies", "setting": "B. thuringiensis; Amphotericin B 0.1 mg, 24 hours, 10^2 cfu/mL", "value": 28}, {"measurement": "Number of colonies", "setting": "B. thuringiensis; Amphotericin B 0.1 mg, 24 hours, 10^3 cfu/mL", "value": "+"}, {"measurement": "Number of colonies", "setting": "B. thuringiensis; Amphotericin B 0.1 mg, 24 hours, 10^4 cfu/mL", "value": "+"}, {"measurement": "Number of colonies", "setting": "B. thuringiensis; Amphotericin B 0.1 mg, 24 hours, 10^5 cfu/mL", "value": "+"}, {"measurement": "Number of colonies", "setting": "B. thuringiensis; Amphotericin B 0.1 mg, 44 hours, 10^2 cfu/mL", "value": 28}, {"measurement": "Number of colonies", "setting": "B. thuringiensis; Amphotericin B 0.1 mg, 44 hours, 10^3 cfu/mL", "value": "+"}, {"measurement": "Number of colonies", "setting": "B. thuringiensis; Amphotericin B 0.1 mg, 44 hours, 10^4 cfu/mL", "value": "+"}, {"measurement": "Number of colonies", "setting": "B. thuringiensis; Amphotericin B 0.1 mg, 44 hours, 10^5 cfu/mL", "value": "+"}, {"measurement": "Number of colonies", "setting": "B. thuringiensis; Amphotericin B 1.0 mg, 24 hours, 10^2 cfu/mL", "value": 39}, {"measurement": "Number of colonies", "setting": "B. thuringiensis; Amphotericin B 1.0 mg, 24 hours, 10^3 cfu/mL", "value": "+"}, {"measurement": "Number of colonies", "setting": "B. thuringiensis; Amphotericin B 1.0 mg, 24 hours, 10^4 cfu/mL", "value": "+"}, {"measurement": "Number of colonies", "setting": "B. thuringiensis; Amphotericin B 1.0 mg, 24 hours, 10^5 cfu/mL", "value": "+"}, {"measurement": "Number of colonies", "setting": "B. thuringiensis; Amphotericin B 1.0 mg, 44 hours, 10^2 cfu/mL", "value": 39}, {"measurement": "Number of colonies", "setting": "B. thuringiensis; Amphotericin B 1.0 mg, 44 hours, 10^3 cfu/mL", "value": "+"}, {"measurement": "Number of colonies", "setting": "B. thuringiensis; Amphotericin B 1.0 mg, 44 hours, 10^4 cfu/mL", "value": "+"}, {"measurement": "Number of colonies", "setting": "B. thuringiensis; Amphotericin B 1.0 mg, 44 hours, 10^5 cfu/mL", "value": "+"}, {"measurement": "Number of colonies", "setting": "B. thuringiensis; Amphotericin B 10 mg, 24 hours, 10^2 cfu/mL", "value": 38}, {"measurement": "Number of colonies", "setting": "B. thuringiensis; Amphotericin B 10 mg, 24 hours, 10^3 cfu/mL", "value": "+"}, {"measurement": "Number of colonies", "setting": "B. thuringiensis; Amphotericin B 10 mg, 24 hours, 10^4 cfu/mL", "value": "+"}, {"measurement": "Number of colonies", "setting": "B. thuringiensis; Amphotericin B 10 mg, 24 hours, 10^5 cfu/mL", "value": "+"}, {"measurement": "Number of colonies", "setting": "B. thuringiensis; Amphotericin B 10 mg, 44 hours, 10^2 cfu/mL", "value": 38}, {"measurement": "Number of colonies", "setting": "B. thuringiensis; Amphotericin B 10 mg, 44 hours, 10^3 cfu/mL", "value": "+"}, {"measurement": "Number of colonies", "setting": "B. thuringiensis; Amphotericin B 10 mg, 44 hours, 10^4 cfu/mL", "value": "+"}, {"measurement": "Number of colonies", "setting": "B. thuringiensis; Amphotericin B 10 mg, 44 hours, 10^5 cfu/mL", "value": "+"}, {"measurement": "Number of colonies", "setting": "C. albicans; ATCC10231, Amphotericin B 0.1 mg, 24 hours, 10^2 cfu/mL", "value": "−"}, {"measurement": "Number of colonies", "setting": "C. albicans; ATCC10231, Amphotericin B 0.1 mg, 24 hours, 10^3 cfu/mL", "value": "−"}, {"measurement": "Number of colonies", "setting": "C. albicans; ATCC10231, Amphotericin B 0.1 mg, 24 hours, 10^4 cfu/mL", "value": "−"}, {"measurement": "Number of colonies", "setting": "C. albicans; ATCC10231, Amphotericin B 0.1 mg, 24 hours, 10^5 cfu/mL", "value": "−"}, {"measurement": "Number of colonies", "setting": "C. albicans; ATCC10231, Amphotericin B 0.1 mg, 44 hours, 10^2 cfu/mL", "value": "−"}, {"measurement": "Number of colonies", "setting": "C. albicans; ATCC10231, Amphotericin B 0.1 mg, 44 hours, 10^3 cfu/mL", "value": "−"}, {"measurement": "Number of colonies", "setting": "C. albicans; ATCC10231, Amphotericin B 0.1 mg, 44 hours, 10^4 cfu/mL", "value": "−"}, {"measurement": "Number of colonies", "setting": "C. albicans; ATCC10231, Amphotericin B 1.0 mg, 24 hours, 10^2 cfu/mL", "value": "−"}, {"measurement": "Number of colonies", "setting": "C. albicans; ATCC10231, Amphotericin B 1.0 mg, 24 hours, 10^3 cfu/mL", "value": "−"}, {"measurement": "Number of colonies", "setting": "C. albicans; ATCC10231, Amphotericin B 1.0 mg, 24 hours, 10^4 cfu/mL", "value": "−"}, {"measurement": "Number of colonies", "setting": "C. albicans; ATCC10231, Amphotericin B 1.0 mg, 24 hours, 10^5 cfu/mL", "value": "−"}, {"measurement": "Number of colonies", "setting": "C. albicans; ATCC10231, Amphotericin B 1.0 mg, 44 hours, 10^2 cfu/mL", "value": "−"}, {"measurement": "Number of colonies", "setting": "C. albicans; ATCC10231, Amphotericin B 1.0 mg, 44 hours, 10^3 cfu/mL", "value": "−"}, {"measurement": "Number of colonies", "setting": "C. albicans; ATCC10231, Amphotericin B 1.0 mg, 44 hours, 10^4 cfu/mL", "value": "−"}, {"measurement": "Number of colonies", "setting": "C. albicans; ATCC10231, Amphotericin B 1.0 mg, 44 hours, 10^5 cfu/mL", "value": "−"}, {"measurement": "Number of colonies", "setting": "C. albicans; ATCC10231, Amphotericin B 10 mg, 24 hours, 10^2 cfu/mL", "value": "−"}, {"measurement": "Number of colonies", "setting": "C. albicans; ATCC10231, Amphotericin B 10 mg, 24 hours, 10^3 cfu/mL", "value": "−"}, {"measurement": "Number of colonies", "setting": "C. albicans; ATCC10231, Amphotericin B 10 mg, 24 hours, 10^4 cfu/mL", "value": "−"}, {"measurement": "Number of colonies", "setting": "C. albicans; ATCC10231, Amphotericin B 10 mg, 24 hours, 10^5 cfu/mL", "value": "−"}, {"measurement": "Number of colonies", "setting": "C. albicans; ATCC10231, Amphotericin B 10 mg, 44 hours, 10^2 cfu/mL", "value": "−"}, {"measurement": "Number of colonies", "setting": "C. albicans; ATCC10231, Amphotericin B 10 mg, 44 hours, 10^3 cfu/mL", "value": "−"}, {"measurement": "Number of colonies", "setting": "C. albicans; ATCC10231, Amphotericin B 10 mg, 44 hours, 10^4 cfu/mL", "value": "−"}, {"measurement": "Number of colonies", "setting": "C. albicans; ATCC10231, Amphotericin B 10 mg, 44 hours, 10^5 cfu/mL", "value": "−"}, {"measurement": "Number of colonies", "setting": "C. albicans; ATCC14053, Amphotericin B 0.1 mg, 24 hours, 10^2 cfu/mL", "value": "−"}, {"measurement": "Number of colonies", "setting": "C. albicans; ATCC14053, Amphotericin B 0.1 mg, 24 hours, 10^3 cfu/mL", "value": "−"}, {"measurement": "Number of colonies", "setting": "C. albicans; ATCC14053, Amphotericin B 0.1 mg, 24 hours, 10^4 cfu/mL", "value": "−"}, {"measurement": "Number of colonies", "setting": "C. albicans; ATCC14053, Amphotericin B 0.1 mg, 24 hours, 10^5 cfu/mL", "value": "−"}, {"measurement": "Number of colonies", "setting": "C. albicans; ATCC14053, Amphotericin B 0.1 mg, 44 hours, 10^2 cfu/mL", "value": "−"}, {"measurement": "Number of colonies", "setting": "C. albicans; ATCC14053, Amphotericin B 0.1 mg, 44 hours, 10^3 cfu/mL", "value": "−"}, {"measurement": "Number of colonies", "setting": "C. albicans; ATCC14053, Amphotericin B 0.1 mg, 44 hours, 10^4 cfu/mL", "value": "−"}, {"measurement": "Number of colonies", "setting": "C. albicans; ATCC14053, Amphotericin B 1.0 mg, 24 hours, 10^2 cfu/mL", "value": "−"}, {"measurement": "Number of colonies", "setting": "C. albicans; ATCC14053, Amphotericin B 1.0 mg, 24 hours, 10^3 cfu/mL", "value": "−"}, {"measurement": "Number of colonies", "setting": "C. albicans; ATCC14053, Amphotericin B 1.0 mg, 24 hours, 10^4 cfu/mL", "value": "−"}, {"measurement": "Number of colonies", "setting": "C. albicans; ATCC14053, Amphotericin B 1.0 mg, 24 hours, 10^5 cfu/mL", "value": "−"}, {"measurement": "Number of colonies", "setting": "C. albicans; ATCC14053, Amphotericin B 1.0 mg, 44 hours, 10^2 cfu/mL", "value": "−"}, {"measurement": "Number of colonies", "setting": "C. albicans; ATCC14053, Amphotericin B 1.0 mg, 44 hours, 10^3 cfu/mL", "value": "−"}, {"measurement": "Number of colonies", "setting": "C. albicans; ATCC14053, Amphotericin B 1.0 mg, 44 hours, 10^4 cfu/mL", "value": "−"}, {"measurement": "Number of colonies", "setting": "C. albicans; ATCC14053, Amphotericin B 1.0 mg, 44 hours, 10^5 cfu/mL", "value": "−"}, {"measurement": "Number of colonies", "setting": "C. albicans; ATCC14053, Amphotericin B 10 mg, 24 hours, 10^2 cfu/mL", "value": "−"}, {"measurement": "Number of colonies", "setting": "C. albicans; ATCC14053, Amphotericin B 10 mg, 24 hours, 10^3 cfu/mL", "value": "−"}, {"measurement": "Number of colonies", "setting": "C. albicans; ATCC14053, Amphotericin B 10 mg, 24 hours, 10^4 cfu/mL", "value": "−"}, {"measurement": "Number of colonies", "setting": "C. albicans; ATCC14053, Amphotericin B 10 mg, 24 hours, 10^5 cfu/mL", "value": "−"}, {"measurement": "Number of colonies", "setting": "C. albicans; ATCC14053, Amphotericin B 10 mg, 44 hours, 10^2 cfu/mL", "value": "−"}, {"measurement": "Number of colonies", "setting": "C. albicans; ATCC14053, Amphotericin B 10 mg, 44 hours, 10^3 cfu/mL", "value": "−"}, {"measurement": "Number of colonies", "setting": "C. albicans; ATCC14053, Amphotericin B 10 mg, 44 hours, 10^4 cfu/mL", "value": "−"}, {"measurement": "Number of colonies", "setting": "C. albicans; ATCC14053, Amphotericin B 10 mg, 44 hours, 10^5 cfu/mL", "value": "−"}]}]}
